# Assay results: US9469650B2, “Melampomagnolide B derivatives” (BOARD OF TRUSTEES OF THE UNIVERSITY OF ARKANSAS, priority 2013, dated 2016)
# What was measured:
# [1] = tested on: CCRF-CEM
# [2] = tested on: LOX IMVI
# [3] = tested on: DU-145
# [4] = tested on: BT-549
# [5] = tested on: HCT-15
# [6] = tested on: SN12C
# [7] = tested on: OVCAR-5
# [8] = tested on: SF-268
# [9] = tested on: MOLT-4
# [10] = tested on: OVCAR-8
# [11] = tested on: U251
# [12] = tested on: UACC-62
# [13] = tested on: 786-0
# [14] = tested on: NCI-H522
# [15] = tested on: UACC-257
# [16] = tested on: MALME-3M
# [17] = tested on: HOP-92
# [18] = tested on: PC-3
# [19] = tested on: TK-10
# [20] = tested on: RPMI-8226; experiment: panel of 60 human tumor cell lines, growth inhibition (Leukemia); conditions: RPMI-8226
# [21] = tested on: MDA-MB-435
# [22] = tested on: IGROV1
# [23] = tested on: NCI-H460
# [24] = tested on: HCC-2998
# [25] = tested on: K-562
# [26] = tested on: SNB-75
# [27] = tested on: MALME-3M; experiment: panel of 60 human tumor cell lines, growth inhibition (Melanoma); conditions: MALME-3M
# [28] = tested on: SR
# [29] = tested on: NCI/ADR-RES
# [30] = tested on: NCI-H23
# [31] = tested on: MCF7
# [32] = tested on: T-47D
# [33] = tested on: A498
# [34] = tested on: SK-MEL-5
# [35] = tested on: UACC-62; experiment: panel of 60 human tumor cell lines, growth inhibition (Melanoma); conditions: UACC-62
# [36] = tested on: RXF 393
# [37] = tested on: SK-OV-3
# [38] = tested on: A549/ATCC
# [39] = tested on: SK-MEL-2
# [40] = tested on: UO-31
# [41] = tested on: NCI-H226
# [42] = tested on: SW-620
# [43] = tested on: SF-295
# [44] = tested on: SNB-19
# [45] = tested on: CAKI-1
compound,measurement,setting,value
C=C1C(=O)O[C@H]2[C@H]1CC/C(COC(=O)CCC(=O)N1CCC(C)CC1)=C\CC[C@@]1(C)O[C@@H]21 [JVM 2-70],CC50,[1],58.6 µM
same,CC50,[2],41 µM
same,CC50,[3],45.9 µM
same,CC50,[4],29.3 µM
same,CC50,[5],32.6 µM
same,CC50,[6],51.9 µM
same,CC50,[7],49.9 µM
same,CC50,[8],69.1 µM
same,CC50,[9],> 100 µM
same,CC50,[10],42.9 µM
same,CC50,[11],59.7 µM
same,CC50,[12],49.5 µM
same,CC50,[13],58 µM
same,CC50,[14],5.99 µM
same,CC50,[15],47 µM
same,CC50,[16],53.6 µM
same,CC50,[17],36.4 µM
same,CC50,[18],69.1 µM
same,CC50,[19],36.3 µM
same,Percent Growth,[20]; Log10 Concentration −4.0,−34%
same,Percent Growth,[20]; Log10 Concentration −5.0,28%
same,Percent Growth,[20]; Log10 Concentration −6.0,96%
same,Percent Growth,[20]; Log10 Concentration −7.0,98%
same,Percent Growth,[20]; Log10 Concentration −8.0,101%
same,GI50,[20]; NCI five dose,4.74 µM
same,TGI,[20]; NCI five dose,2.82E−5
same,CC50,[21],61.9 µM
same,CC50,[22],94 µM
same,CC50,[23],89.4 µM
same,CC50,[24],61 µM
same,CC50,[25],> 100 µM
same,CC50,[26],57 µM
same,Percent Growth,[27]; Log10 Concentration −4.0,−67%
same,Percent Growth,[27]; Log10 Concentration −5.0,−5%
same,Percent Growth,[27]; Log10 Concentration −6.0,99%
same,Percent Growth,[27]; Log10 Concentration −7.0,108%
same,Percent Growth,[27]; Log10 Concentration −8.0,106%
same,GI50,[27]; NCI five dose,2950 nM
same,TGI,[27]; NCI five dose,8.96E−5
same,CC50,[28],> 100 µM
same,CC50,[29],96 µM
same,CC50,[30],64.3 µM
same,CC50,[31],64.1 µM
same,CC50,[32],> 100 µM
same,CC50,[33],45.2 µM
same,CC50,[34],47.8 µM
same,Percent Growth,[35]; Log10 Concentration −4.0,−87%
same,Percent Growth,[35]; Log10 Concentration −5.0,33%
same,Percent Growth,[35]; Log10 Concentration −6.0,92%
same,Percent Growth,[35]; Log10 Concentration −7.0,94%
same,Percent Growth,[35]; Log10 Concentration −8.0,97%
same,GI50,[35]; NCI five dose,5.15 µM
same,TGI,[35]; NCI five dose,1.89E−5
same,CC50,[36],9.41 µM
same,CC50,[37],> 100 µM
same,CC50,[38],75.9 µM
same,CC50,[39],61 µM
same,CC50,[40],46.9 µM
same,CC50,[41],76.1 µM
same,CC50,[42],42.6 µM
same,CC50,[43],71 µM
same,CC50,[44],63.4 µM
same,CC50,[45],36.2 µM
